Results as given in US9469650B2, “Melampomagnolide B derivatives” (BOARD OF TRUSTEES OF THE UNIVERSITY OF ARKANSAS, priority 2013, dated 2016).

What was measured:
[1] = system: CCRF-CEM; assay: panel of 60 human tumor cell lines, growth inhibition (Leukemia)
[2] = system: MOLT-4; assay: as above; details: MOLT-4
[3] = system: SR; assay: as above
[4] = system: MDA-MB-435; assay: panel of 60 human tumor cell lines, growth inhibition (Melanoma); details: MDA-MB-435
[5] = system: SK-MEL-28; assay: as above; details: SK-MEL-28
[6] = system: SK-MEL-5; assay: as above; details: 8K-MEL-5
[7] = system: SF-539; assay: panel of 60 human tumor cell lines, growth inhibition (CNS Cancer); details: SF-539
[8] = system: COLO 205; assay: panel of 60 human tumor cell lines, growth inhibition (Colon Cancer); details: COLO 205
[9] = system: HT29; assay: as above; details: HT29
[10] = system: KM12; assay: as above; details: KM12
[11] = system: ACHN; assay: panel of 60 human tumor cell lines, growth inhibition (Renal Cancer)
[12] = system: TK-10; assay: as above; details: TK-10
[13] = system: HS 578T; assay: panel of 60 human tumor cell lines, growth inhibition (Breast Cancer); details: HS 578T
[14] = system: T-47D; assay: as above; details: T-47D
[15] = system: MDA-MB-468; assay: as above; details: MDA-MB-468
[16] = system: OVCAR-8; assay: panel of 60 human tumor cell lines, growth inhibition (Ovarian Cancer); details: OVCAR-8
[17] = system: NCI/ADR-RES; assay: as above
[18] = system: NCI-H23; assay: panel of 60 human tumor cell lines, growth inhibition (Non-Small Cell Lung Cancer)
[19] = system: NCI-H460; assay: as above; details: NCI-H460

C=C1C(=O)O[C@H]2[C@H]1CC/C(COC(=O)NC)=C\CC[C@@]1(C)O[C@@H]21 [JVM 2-57]
Percent Growth ([1]; Log10 Concentration −4.0): −53% | Percent Growth ([1]; Log10 Concentration −5.0): −29% | Percent Growth ([1]; Log10 Concentration −6.0): 59% | Percent Growth ([1]; Log10 Concentration −7.0): 93% | Percent Growth ([1]; Log10 Concentration −8.0): 97% | GI50 ([1]; NCI five dose): 1.25 µM | TGI ([1]; NCI five dose): 4.69E−6 | Percent Growth ([2]; Log10 Concentration −4.0): −39% | Percent Growth ([2]; Log10 Concentration −5.0): 8% | Percent Growth ([2]; Log10 Concentration −6.0): 98% | Percent Growth ([2]; Log10 Concentration −7.0): 90% | Percent Growth ([2]; Log10 Concentration −8.0): 97% | GI50 ([2]; NCI five dose): 3.4 µM | TGI ([2]; NCI five dose): 1.49E−5 | Percent Growth ([3]; Log10 Concentration −4.0): −45% | Percent Growth ([3]; Log10 Concentration −5.0): 4% | Percent Growth ([3]; Log10 Concentration −6.0): 77% | Percent Growth ([3]; Log10 Concentration −7.0): 96% | Percent Growth ([3]; Log10 Concentration −8.0): 101% | GI50 ([3]; NCI five dose): 2.33 µM | TGI ([3]; NCI five dose): 1.21E−5 | Percent Growth ([4]; Log10 Concentration −4.0): −81% | Percent Growth ([4]; Log10 Concentration −5.0): 32% | Percent Growth ([4]; Log10 Concentration −6.0): 91% | Percent Growth ([4]; Log10 Concentration −7.0): 93% | Percent Growth ([4]; Log10 Concentration −8.0): 99% | GI50 ([4]; NCI five dose): 5.01 µM | TGI ([4]; NCI five dose): 1.92E−5 | Percent Growth ([5]; Log10 Concentration −4.0): −79% | Percent Growth ([5]; Log10 Concentration −5.0): 24% | Percent Growth ([5]; Log10 Concentration −6.0): 91% | Percent Growth ([5]; Log10 Concentration −7.0): 91% | Percent Growth ([5]; Log10 Concentration −8.0): 98% | GI50 ([5]; NCI five dose): 4.11 µM | TGI ([5]; NCI five dose): 1.72E−5 | Percent Growth ([6]; Log10 Concentration −4.0): −73% | Percent Growth ([6]; Log10 Concentration −5.0): 56% | Percent Growth ([6]; Log10 Concentration −6.0): 97% | Percent Growth ([6]; Log10 Concentration −7.0): 98% | Percent Growth ([6]; Log10 Concentration −8.0): 100% | GI50 ([6]; NCI five dose): 11.1 µM | TGI ([6]; NCI five dose): 2.70E−5 | Percent Growth ([7]; Log10 Concentration −4.0): −92% | Percent Growth ([7]; Log10 Concentration −5.0): 22% | Percent Growth ([7]; Log10 Concentration −6.0): 88% | Percent Growth ([7]; Log10 Concentration −7.0): 91% | Percent Growth ([7]; Log10 Concentration −8.0): 97% | GI50 ([7]; NCI five dose): 3.8 µM | TGI ([7]; NCI five dose): 1.57E−5 | Percent Growth ([8]; Log10 Concentration −4.0): −94% | Percent Growth ([8]; Log10 Concentration −5.0): −8% | Percent Growth ([8]; Log10 Concentration −6.0): 95% | Percent Growth ([8]; Log10 Concentration −7.0): 97% | Percent Growth ([8]; Log10 Concentration −8.0): 103% | GI50 ([8]; NCI five dose): 2.73 µM | TGI ([8]; NCI five dose): 8.33E−6 | CC50 ([8]; read-out: LC50, NCI five dose): 30.8 µM | Percent Growth ([9]; Log10 Concentration −4.0): −73% | Percent Growth ([9]; Log10 Concentration −5.0): 21% | Percent Growth ([9]; Log10 Concentration −6.0): 104% | Percent Growth ([9]; Log10 Concentration −7.0): 96% | Percent Growth ([9]; Log10 Concentration −8.0): 101% | GI50 ([9]; NCI five dose): 4.5 µM | TGI ([9]; NCI five dose): 1.68E−5 | Percent Growth ([10]; Log10 Concentration −4.0): −92% | Percent Growth ([10]; Log10 Concentration −5.0): 73% | Percent Growth ([10]; Log10 Concentration −6.0): 99% | Percent Growth ([10]; Log10 Concentration −7.0): 97% | Percent Growth ([10]; Log10 Concentration −8.0): 98% | GI50 ([10]; NCI five dose): 13.8 µM | TGI ([10]; NCI five dose): 2.78E−5 | Percent Growth ([11]; Log10 Concentration −4.0): −83% | Percent Growth ([11]; Log10 Concentration −5.0): 7% | Percent Growth ([11]; Log10 Concentration −6.0): 84% | Percent Growth ([11]; Log10 Concentration −7.0): 93% | Percent Growth ([11]; Log10 Concentration −8.0): 98% | GI50 ([11]; NCI five dose): 2.78 µM | TGI ([11]; NCI five dose): 1.19E−5 | Percent Growth ([12]; Log10 Concentration −4.0): −95% | Percent Growth ([12]; Log10 Concentration −5.0): −5% | Percent Growth ([12]; Log10 Concentration −6.0): 96% | Percent Growth ([12]; Log10 Concentration −7.0): 98% | Percent Growth ([12]; Log10 Concentration −8.0): 94% | GI50 ([12]; NCI five dose): 2.86 µM | TGI ([12]; NCI five dose): 8.97E−6 | Percent Growth ([13]; Log10 Concentration −4.0): 7% | Percent Growth ([13]; Log10 Concentration −5.0): 65% | Percent Growth ([13]; Log10 Concentration −6.0): 87% | Percent Growth ([13]; Log10 Concentration −7.0): 92% | Percent Growth ([13]; Log10 Concentration −8.0): 91% | GI50 ([13]; NCI five dose): 18.4 µM | TGI ([13]; NCI five dose): >1.00E−4 | Percent Growth ([14]; Log10 Concentration −4.0): −80% | Percent Growth ([14]; Log10 Concentration −5.0): −4% | Percent Growth ([14]; Log10 Concentration −6.0): 81% | Percent Growth ([14]; Log10 Concentration −7.0): 86% | Percent Growth ([14]; Log10 Concentration −8.0): 94% | GI50 ([14]; NCI five dose): 2.32 µM | TGI ([14]; NCI five dose): 9.04E−6 | Percent Growth ([15]; Log10 Concentration −4.0): −65% | Percent Growth ([15]; Log10 Concentration −5.0): −18% | Percent Growth ([15]; Log10 Concentration −6.0): 58% | Percent Growth ([15]; Log10 Concentration −7.0): 99% | Percent Growth ([15]; Log10 Concentration −8.0): 100% | GI50 ([15]; NCI five dose): 1.26 µM | TGI ([15]; NCI five dose): 5.83E−6 | Percent Growth ([16]; Log10 Concentration −4.0): −76% | Percent Growth ([16]; Log10 Concentration −5.0): 30% | Percent Growth ([16]; Log10 Concentration −6.0): 92% | Percent Growth ([16]; Log10 Concentration −7.0): 160% | Percent Growth ([16]; Log10 Concentration −8.0): 100% | GI50 ([16]; NCI five dose): 4.82 µM | TGI ([16]; NCI five dose): 1.93E−5 | Percent Growth ([17]; Log10 Concentration −4.0): −27% | Percent Growth ([17]; Log10 Concentration −5.0): 60% | Percent Growth ([17]; Log10 Concentration −6.0): 99% | Percent Growth ([17]; Log10 Concentration −7.0): 101% | Percent Growth ([17]; Log10 Concentration −8.0): 95% | GI50 ([17]; NCI five dose): 13.1 µM | TGI ([17]; NCI five dose): 4.89E−5 | TGI ([18]; NCI five dose): 2.04E−5 | Percent Growth ([18]; NCI-H 3, Log10 Concentration −4.0): −68% | Percent Growth ([18]; NCI-H 3, Log10 Concentration −5.0): 30% | Percent Growth ([18]; NCI-H 3, Log10 Concentration −6.0): 92% | Percent Growth ([18]; NCI-H 3, Log10 Concentration −7.0): 95% | Percent Growth ([18]; NCI-H 3, Log10 Concentration −8.0): 94% | GI50 ([18]; NCI-H 3, NCI five dose): 4.79 µM | Percent Growth ([19]; Log10 Concentration −4.0): −65% | Percent Growth ([19]; Log10 Concentration −5.0): 78% | Percent Growth ([19]; Log10 Concentration −6.0): 101% | Percent Growth ([19]; Log10 Concentration −7.0): 103% | Percent Growth ([19]; Log10 Concentration −8.0): 103% | GI50 ([19]; NCI five dose): 15.6 µM | TGI ([19]; NCI five dose): 3.49E−5
